Test results: ChEMBL document CHEMBL5257080, “Optimization of physicochemical properties of pyrrolidine GPR40 AgoPAMs results in a differentiated profile with improved pharmacokinetics and reduced off-target activities” (Bioorg Med Chem, 2023)
The source made the active and inactive calls. The calls are words filed in the database; no cut-off is given here.

Experiments:
[1] = target: T1, Peroxisome proliferator-activated receptor gamma (Homo sapiens, UniProt P37231); assay: Transactivation of PPARgamma (unknown origin)
T1 sequence (P37231 whole entry): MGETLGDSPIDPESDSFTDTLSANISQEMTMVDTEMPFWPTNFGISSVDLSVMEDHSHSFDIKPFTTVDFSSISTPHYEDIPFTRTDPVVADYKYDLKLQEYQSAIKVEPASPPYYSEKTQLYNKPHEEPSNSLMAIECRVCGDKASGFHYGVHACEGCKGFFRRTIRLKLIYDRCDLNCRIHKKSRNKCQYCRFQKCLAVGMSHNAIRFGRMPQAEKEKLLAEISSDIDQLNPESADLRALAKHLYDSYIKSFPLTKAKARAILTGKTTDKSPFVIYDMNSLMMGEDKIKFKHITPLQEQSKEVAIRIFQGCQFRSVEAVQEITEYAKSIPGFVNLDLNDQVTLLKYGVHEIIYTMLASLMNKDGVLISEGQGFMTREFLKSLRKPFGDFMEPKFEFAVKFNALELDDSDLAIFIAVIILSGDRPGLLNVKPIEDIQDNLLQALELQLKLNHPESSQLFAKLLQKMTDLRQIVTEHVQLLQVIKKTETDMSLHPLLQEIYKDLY

[2] = target: T2, Free fatty acid receptor 1 (Homo sapiens, UniProt O14842); assay: Positive allosteric modulation of human GPR40 by calcium based FLIPR analysis
[3] = target: T2, Free fatty acid receptor 1; assay: Positive allosteric modulation of human GPR40 expressed in HEK293 cells; type: cell-based
[4] = AUC (0-7hrs) in mouse at 1 mg/kg; type: ADME, organism-based; set-up: dose 1 mg/kg; conditions: in vivo
[5] = Cmax in mouse at 1 mg/kg; type: ADME, organism-based; set-up: dose 1 mg/kg; conditions: in vivo
[6] = Lipophilicity, logD of compound; type: physicochemical; conditions: octanol/water
[7] = target: Free fatty acid receptor 1 (Mus musculus, UniProt Q76JU9); assay: Positive allosteric modulation of mouse GPR40
[8] = Metabolic stability in mouse liver microsome assessed as parent compound remaining after 10 mins; type: ADME; conditions: liver microsomes, read-out: Stability
[9] = test system: Mus musculus; assay: Anti-hyperglycemic activity against mouse assessed as reduction in plasma glucose level at 3 mg/kg, po by OGTT analysis; type: functional, organism-based
[10] = Drug concentration in mouse plasma measured after 3 hrs; type: ADME

T2 sequence (O14842 whole entry): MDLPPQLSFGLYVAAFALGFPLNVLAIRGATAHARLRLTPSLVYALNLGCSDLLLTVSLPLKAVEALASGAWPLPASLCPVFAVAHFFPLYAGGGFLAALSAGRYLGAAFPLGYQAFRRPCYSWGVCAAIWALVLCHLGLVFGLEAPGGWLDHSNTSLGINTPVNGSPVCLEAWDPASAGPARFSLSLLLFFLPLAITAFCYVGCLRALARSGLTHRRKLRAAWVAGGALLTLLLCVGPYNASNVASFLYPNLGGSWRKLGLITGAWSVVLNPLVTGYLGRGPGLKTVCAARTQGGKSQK
Chain of Free fatty acid receptor 1 (Mus musculus, UniProt Q76JU9) (Q76JU9 whole entry): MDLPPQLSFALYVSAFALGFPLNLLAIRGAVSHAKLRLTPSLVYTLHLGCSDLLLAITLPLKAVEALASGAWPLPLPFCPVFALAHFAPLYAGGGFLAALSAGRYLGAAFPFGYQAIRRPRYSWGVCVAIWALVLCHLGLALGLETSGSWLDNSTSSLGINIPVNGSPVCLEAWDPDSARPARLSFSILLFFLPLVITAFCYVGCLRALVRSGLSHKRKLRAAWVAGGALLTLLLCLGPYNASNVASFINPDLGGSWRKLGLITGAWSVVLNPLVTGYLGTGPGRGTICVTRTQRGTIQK

Compound	EC50 [1] [nM]	EC50 [2] [nM]	also measured
COc1cc(N2CC[C@@H](Oc3ccc(N4C[C@H](F)[C@@H](OC)[C@@H]4CC(=O)O)cc3)[C@H](C)C2)c(Cl)cn1	> 48000	–	–
CCOc1ccc(F)c(N2CC[C@@H](Oc3ccc(N4C[C@H](C(F)(F)F)C[C@@H]4CC(=O)O)cc3)[C@H](CC(C)C)C2)c1	–	430	–
COc1cc(N2CC[C@@H](Oc3ccc(N4C[C@H](C(F)(F)F)[C@@H](C)[C@@H]4CC(=O)O)cc3)[C@H](C)C2)c(Cl)cn1	> 48000	–	–
CCOc1ccc(F)c(N2CC[C@@H](Oc3ccc(N4CC(C)(C)C[C@@H]4CC(=O)O)cc3)[C@H](C)C2)c1	> 48000	–	–
CCOc1ccc(F)c(N2CC[C@@H](Oc3ccc(N4C[C@H](C(F)(F)F)C[C@@H]4CC(=O)O)cc3)[C@H](C)C2)c1	> 48000	–	–
COc1ccc(F)c(N2CCC(Oc3ccc(N4CCC[C@@H]4CC(=O)O)cc3)CC2)c1	> 50000	–	EC50 [3]: 1400 nM
COc1cc(N2CC[C@@H](Oc3ccc(N4CC[C@@H](C)[C@@H]4CC(=O)O)cc3)[C@H](C)C2)c(Cl)cn1	> 48000	110	–
CCOc1ccc(F)c(N2CC[C@@H](Oc3ccc(N4C[C@H](OC)[C@@H](C)[C@@H]4CC(=O)O)cc3)[C@H](C)C2)c1	> 48000	–	AUC(0-t) [4]: 0.5 µM·h; Cmax [5]: 500 nM
CCOc1ccc(F)c(N2CCC(Oc3ccc(N4C[C@H](Oc5ccccc5)C[C@@H]4CC(=O)O)cc3)CC2)c1	> 47000	–	logD [6]: 2.44
CCOc1ccc(F)c(N2CCC(Oc3ccc(N4C[C@H](Oc5cccc(OC)c5)C[C@@H]4CC(=O)O)cc3)CC2)c1	> 47000	–	logD [6]: 2.15
CCOc1ccc(F)c(N2CCC(Oc3ccc(N4C[C@H](OCCCOC)C[C@@H]4CC(=O)O)cc3)CC2)c1	> 47000	–	logD [6]: 0.81
CCOc1ccc(F)c(N2CC[C@@H](Oc3ccc(N4C[C@H](C(F)(F)F)C[C@@H]4CC(=O)O)cc3)[C@H](CC)C2)c1	–	430	–
COc1ccc(F)c(N2CCC(Oc3ccc(N4CCC[C@H]4CC(=O)O)cc3)CC2)c1	> 50000	–	EC50 [3]: 4100 nM
CCOc1ccc(F)c(N2CC[C@@H](Oc3ccc(N4C[C@](C)(OC)C[C@@H]4CC(=O)O)cc3)[C@H](C)C2)c1	–	220	–
COc1cc(N2CC[C@@H](Oc3ccc(N4C[C@H](F)[C@@H](C)[C@@H]4CC(=O)O)cc3)[C@H](C)C2)c(Cl)cn1	> 48000	29	EC50 [7]: 48 nM; remaining at 10 min [8]: 97%; Activity [9]: inactive; concentration at 3 h [10]: 156 nM
CCOc1ccc(F)c(N2CC[C@@H](Oc3ccc(N4C[C@H](C(F)(F)F)C[C@@H]4CC(=O)O)cc3)[C@H](Cc3ccccc3)C2)c1	–	740	–
COc1cc(N2CC[C@@H](Oc3ccc(N4C[C@H](OCCCC#N)[C@@H](C)[C@@H]4CC(=O)O)cc3)[C@H](C)C2)c(Cl)cn1	–	120	–
COCCOCO[C@H]1CN(c2ccc(O[C@@H]3CCN(c4cc(OC)ncc4Cl)C[C@H]3C)cc2)[C@@H](CC(=O)O)[C@@H]1C	–	180	–
CCOc1ccc(F)c(N2CC[C@@H](Oc3ccc(N4C[C@H](OCCCOC)[C@@H](C)[C@@H]4CC(=O)O)cc3)[C@H](C)C2)c1	> 47000	51	EC50 [7]: 18 nM; AUC(0-t) [4]: 2.9 µM·h; Cmax [5]: 1400 nM; logD [6]: 1.82
CCOc1ccc(F)c(N2CC[C@@H](Oc3ccc(N4C[C@H](OC)C[C@@H]4CC(=O)O)cc3)[C@H](C)C2)c1	12000	–	–
CCOc1ccc(F)c(N2CC[C@@H](Oc3ccc(N4C[C@H](OCCCOC)C[C@@H]4CC(=O)O)cc3)[C@H](C)C2)c1	–	–	logD [6]: 1.3
CCOc1ccc(F)c(N2CC[C@@H](Oc3ccc(N4C[C@H](c5ccccc5)C[C@@H]4CC(=O)O)cc3)[C@H](C)C2)c1	> 48000	230	–
CCCCCO[C@H]1CN(c2ccc(O[C@@H]3CCN(c4cc(OC)ncc4Cl)C[C@H]3C)cc2)[C@@H](CC(=O)O)[C@@H]1C	–	190	–
